The subject of series [1] is AR42J xenografts. Kind of series: Targeted alpha particle therapy, two-cycle regimen. In kind it is in vivo, athymic nu/nu mice. The following applies: 2 × 148 kBq. The procedure:
To further assess therapeutic efficacy, AR42J xenograft-bearing mice received two cycles of ^225Ac-labeled constructs (2 × 148 kBq, administered 8 days apart) (Fig. 5D). […] Complete tumor regression occurred in two of six animals in each cleavable linker group.
(§1) Mice received either a one-cycle regimen (n=8 per cohort) or a two-cycle regimen (n=6 per cohort) at an 8-day interval. Tumor volume and body weight were measured twice weekly after treatment using a digital caliper. Tumor volume was calculated using the formula V (mm^3) = (l × w^2)/2, where l (length) was the larger of the two perpendicular tumor axes, and w (width) was the smaller axis. Survival was monitored, with the endpoint defined as a tumor volume exceeding 2000 mm^3, a weight loss greater than 20% from baseline, or signs of distress in the mice.

Series [2] concerns AR42J xenografts. Kind of series: Targeted alpha particle therapy, one-cycle regimen. In kind it is in vivo, athymic nu/nu mice. The procedure:
Building on the favorable dosimetry profiles observed for the cleavable linker-modified constructs, we next evaluated their therapeutic efficacy in vivo following one cycle of ^225Ac-labeled variants (Fig. 5C; Fig. S19A). […] Tumor growth, overall survival, and body weight were monitored over 95 days.
as §1

Series [3] concerns AR42J xenografts. The series can be described thus: Ex vivo biodistribution of 111In-labeled variants in AR42J xenograft mice. The arrangement: species or system athymic nude mice. As to conditions: AR42J xenografts, 1 h post-injection. Here is the method:
For studies involving three variants (DOTA -TATE, DOTA-MVK(ε)-TATE, and DOTA-β-Gal-TATE), AR42J cells (5 × 10^6 cells per mouse) were subcutaneously inoculated into the right shoulder of the mice. Tumors were allowed to grow for 3 weeks, reaching a volume of 100 –200 mm³ before being used in subsequent experiments. For biodistribution or PET imaging studies, mice bearing subcutaneous AR42J tumors were administered 1.4 – 1.8 MBq (1 μg) of 111In-labeled DOTA-TATE variants or 2.7 – 4.9 MBq (1 μg) of 86Y-labeled DOTA-TATE variants via tail vein injection. Biodistribution studies with 111In-labeled DOTA -TATE variants were performed 1 hour post -injection (n = 3 per cohort), while studies with 86Y-labeled DOTA-TATE variants were conducted at 1, 4, and 24 hours post -injection (n = 3 per cohort). Mice were euthanized by CO2 asphyxiation, and 10 tissues, including tumors, were collected. All samples were weighed and counted on a gamma counter (2480 Wizard 3, Perkin Elmer Inc., Waltham, MA, USA). Results are presented as percentage of injected activity per gram (%IA/g) and mean values ± standard deviations. […]

“Also recorded” adds a separate entry of the source.

With `C[C@@H](O)[C@H](NC(=O)[C@@H]1CSSC[C@H](NC(=O)[C@@H](Cc2ccccc2)NC(=O)CCCC(=O)Nc2cc(COC(=O)N(C)CCNC(=O)CN3CCN(CC(=O)O)CCN(CC(=O)O)CCN(CC(=O)O)CC3)ccc2O[C@@H]2O[C@H](CO)[C@H](O)[C@H](O)[C@H]2O)C(=O)N[C@@H](Cc2ccc(O)cc2)C(=O)N[C@H](Cc2c[nH]c3ccccc23)C(=O)N[C@@H](CCCCN)C(=O)N[C@@H]([C@@H](C)O)C(=O)N1)C(=O)O` [^225Ac-DOTA-β-Gal-TATE, metal not drawn], the Tumor control result in series [1] (8-day interval, n = 6) is “significantly smaller; also recorded: prolonged tumor control with sustained growth inhibition”. Further, the Median survival time in series [1] (8 days apart, AR42J xenograft-bearing mice, n = 6, Kaplan–Meier, vehicle 26.5 days) is given as 191.5 days; in series [2] (148 kBq (1 μg) per mouse, AR42J xenograft-bearing mice, n = 8, Kaplan–Meier, vehicle 16 days), 86 days. Further, in series [1] (n = 6), the “Mice with tumor volumes below 100 mm^3 by the final monitoring point” value is “all six”. Moreover, the Tumor growth entry in series [2] (148 kBq per mouse, monitored over 95 days, n = 8) is “most sustained inhibition of tumor growth, with minimal progression observed up to day 35 post-treatment”. Moreover, the Body weight entry in series [2] (148 kBq per mouse, n = 8) is “gradually regained weight by day 14, maintaining stable body weights for the remainder of the study”.
For the molecule `C[C@@H](O)[C@H](NC(=O)[C@@H]1CSSC[C@H](NC(=O)[C@@H](Cc2ccccc2)NC(=O)CCCC(=O)Nc2cc(COC(=O)N(C)CCNC(=O)CN3CCN(CC(=O)O)CCN(CC(=O)O)CCN(CC(=O)O)CC3)ccc2O[C@@H]2O[C@H](CO)[C@H](O)[C@H](O)[C@H]2O)C(=O)N[C@@H](Cc2ccc(O)cc2)C(=O)N[C@H](Cc2c[nH]c3ccccc23)C(=O)N[C@@H](CCCCN)C(=O)N[C@@H]([C@@H](C)O)C(=O)N1)C(=O)O` [^111In-DOTA-β-Gal-TATE, metal not drawn], in series [3], the “Improvement of T/K ratio over DOTA-TATE” value is given as 2.7 fold, the “Increase in tumor uptake compared to DOTA-TATE” value is listed as ~ 90% and the “Reduction in kidney retention compared to DOTA-TATE” value was ~ 29%.

The record behind these values is article doi:10.1101/2025.09.11.675134, “Biodistribution-Driven Discovery Identifies a Glycosidase-Cleavable Linker to Reprogram Radiotheranostics” (bioRxiv, 2025).
